Laboratory results from patent US20210244813A1, “ADJUVANT AND VACCINE COMPOSITIONS” (priority 2012, published 2021).

Test system: IL-4
Assay: Relative IL-4 mRNA expression (real time RT-PCR) in cultured splenic lymphocytes of vaccinated mice
Format: cell-based
Conditions: vaccine treatment group; culture with LAP, LAP/QAC or OVA

OVA
IL-4 expression normalized to ARBP at 48 hours in culture: Increased IL-4 expression was observed for some animals
